Laboratory results from patent US20080194585A1, “Fungicidal Pyrazine Derivatives” (priority 2005, published 2008).
Marks after values point to notes of the source that are not given here.

Columns and labels:
[1] = system: Plasmopara viticola; test: Test D: grape downy mildew, spray after inoculation of grape seedlings; type: in vivo
Excerpt: Upon removal, disease ratings were made. […] A dash (-) indicates no test results.

[2] = system: Phytophthora infestans; test: whole plant or invertebrate; type: in vivo
[3] = system: Septoria tritici; test: Test J: wheat leaf blotch, preventive spray on wheat seedlings; type: in vivo
Excerpt: A dash (-) indicates no test results.

[4] = system: Puccinia recondita f. sp. tritici; test: Test K: wheat leaf rust, preventive spray on wheat seedlings
[5] = system: Botrytis cinerea; test: Test E: tomato botrytis, preventive spray on tomato seedlings
[6] = system: Septoria nodorum; test: Test H: wheat glum blotch, preventive spray on wheat seedlings
Experimental: (the causal agent of wheat glum blotch) and incubated in a saturated atmosphere at 20° C. for 48 h, and then moved to a growth chamber at 22° C. for 5 days, after which disease ratings were made.

[7] = system: Erysiphe graminis f. sp. tritici; test: Test L: wheat powdery mildew, preventive spray on wheat seedlings
[8] = system: Sclerotinia sclerotiorum; test: Test C: cucumber white mold, preventive spray on cucumber seedlings
[9] = system: Pythium aphanidermatum; test: Test A: bluegrass pythium blight, preventive spray on bluegrass seedlings
[10] = system: Rhizoctonia oryzae; test: Test G: turf brown patch, preventive spray on creeping bent grass seedlings
Experimental: (the causal agent of turf brown patch) and incubated in a saturated atmosphere at 27° C. for 24 h, and then moved to a growth chamber at 27° C. for 5 days, after which disease ratings were made.

[11] = system: Colletotrichum orbiculare; test: Test B: cucumber Colletotrichum anthracnose, preventive spray on cucumber seedlings
[12] = system: fusarium graminearium; test: Test I: wheat head scab, preventive spray on wheat seedlings; conditions: 200 ppm; 100 = 100% disease control, 0 = no control relative to controls
Experimental: (the causal agent of wheat head scab) and incubated in a saturated atmosphere at 20° C. for 72 h, and then moved to a growth chamber at 22° C. for 5 days, after which disease ratings were made.

[13] = 200 ppm, 100 = 100% disease control, 0 = no control relative to controls

| Structure (SMILES) | Test D disease control rating ([1]; 200 ppm) [%] | Test F disease control rating ([2]; 200 ppm) [%] | Test J disease control rating ([3]; 200 ppm) [%] | Test K disease control rating ([4]; 200 ppm) [%] | Test E disease control rating ([5]; 200 ppm) [%] | Test H disease control rating ([6]; 200 ppm) [%] | Test L disease control rating ([7]; 200 ppm) [%] | Test C disease control rating ([8]; 200 ppm) [%] | Test A disease control rating ([9]; 200 ppm) [%] | Test G disease control rating ([10]; 200 ppm) [%] | Test B disease control rating ([11]; 200 ppm) [%] | further results |
| --- | --- | --- | --- | --- | --- | --- | --- | --- | --- | --- | --- | --- |
| Cc1ccc(-c2nc(Cl)c(-c3c(F)cccc3F)n(CC(C)C)c2=O)nc1 [Compound 209, 5-Chloro-6-(2,6-difluorophenyl)-1-(2-methylpropyl)-3-(5-methyl-2-pyridinyl)-2(1H)-pyrazinone] | – | – | – | – | – | – | – | – | – | – | – | pest or weed control at 200 ppm ([1]; Plasmopara viticola, 168 h, 200 ppm, read-out: Test D disease control rating): 8%; pest or weed control at 200 ppm ([2]; Phytophthora infestans, in Solanum lycopersicum, topical, 144 h, read-out: Test F disease control rating): 0%; pest or weed control at 200 ppm ([3]; Zymoseptoria tritici, 528 h, 200 ppm, read-out: Test J disease control rating): 96%; pest or weed control at 200 ppm ([4]; Puccinia recondita, in Triticum aestivum, 192 h, read-out: Test K disease control rating): 85%; pest or weed control at 200 ppm ([5]; Botrytis cinerea, in Solanum lycopersicum, topical, 72 h, read-out: Test E disease control rating): 99%; pest or weed control at 200 ppm ([6]; Parastagonospora nodorum, in Triticum aestivum, topical, 168 h, read-out: Test H disease control rating, 200 ppm): 0%; pest or weed control at 200 ppm ([7]; Blumeria graminis, in Triticum aestivum, 168 h, read-out: Test L disease control rating, 200 ppm): 0%; pest or weed control at 200 ppm ([8]; Sclerotinia sclerotiorum, in Cucumis sativus, 168 h, read-out: Test C disease control rating, 200 ppm): 0%; pest or weed control at 200 ppm ([9]; Pythium aphanidermatum, 120 h, read-out: Test A disease control rating): 56%; pest or weed control at 200 ppm ([10]; Waitea circinata, in Agrostis stolonifera, topical, 144 h, read-out: Test G disease control rating, 200 ppm): 34%; pest or weed control at 200 ppm ([11]; Colletotrichum orbiculare, in Cucumis sativus, 144 h, read-out: Test B disease control rating, 200 ppm): 54% |
| CCC(C)n1c(-c2c(F)cccc2F)c(Cl)nc(-n2cncn2)c1=O (stereo not drawn) [compound 32] | 15 | 0 | 32 | 100 | 100 | 100 | 0 | 95 | 0 | 92 | 0 | – |
| CC(C)n1c(-c2c(F)cccc2F)c(Cl)nc(-n2cncn2)c1=O [compound 33] | 34 | 0 | 100 | 100 | 100 | 100 | 0 | 16 | 0 | 100 | 0 | – |
| CCCn1c(-c2c(F)cccc2F)c(Cl)nc(-n2cncn2)c1=O [compound 34] | 10 | 26 | 97 | 99 | 100 | 100 | 89 | 16 | 0 | 100 | 0 | – |
| CC(C)CCn1c(-c2c(F)cccc2F)c(Cl)nc(-n2cccn2)c1=O [compound 35] | 5 | 0 | 100 | 88 | 100 | 100 | 97 | 0 | 0 | 90 | 0 | – |
| C=CCn1c(-c2c(F)cccc2F)c(Cl)nc(-n2cccn2)c1=O [compound 58] | 47 | 0 | 98 | 100 | 100 | 100 | 99 | 0 | 0 | 92 | 99 | – |
| CC(C)Cn1c(-c2c(F)cccc2F)c(Cl)nc(-c2ccncc2)c1=O [compound 84] | – | – | – | – | – | – | – | – | – | – | – | Test D disease control rating ([1]; 40 ppm (*)): 5* %; Test F disease control rating ([2]; 40 ppm (*)): 0* %; Test J disease control rating ([3]; 40 ppm (*)): 20* %; Test K disease control rating ([4]; 40 ppm (*)): 0* %; Test E disease control rating ([5]; 40 ppm (*)): 0* %; Test H disease control rating ([6]; 40 ppm (*)): 0* %; Test L disease control rating ([7]; 40 ppm (*)): 0* %; Test C disease control rating ([8]; 40 ppm (*)): 0* %; Test A disease control rating ([9]; 40 ppm (*)): 0* %; Test G disease control rating ([10]; 40 ppm (*)): 0* %; Test B disease control rating ([11]; 40 ppm (*)): 0* % |
| COCCn1c(-c2c(F)cccc2F)c(Cl)nc(-n2cccn2)c1=O [compound 95] | 92 | 0 | 95 | 94 | 99 | 100 | 0 | 0 | 0 | 68 | 0 | – |
| CC(C)Cn1c(-c2c(F)cccc2F)c(Cl)nc(-c2nccs2)c1=O [compound 101] | 15 | 0 | – | – | – | – | – | 0 | 0 | – | – | Test J disease control rating ([3]; 40 ppm (*)): 53* %; Test K disease control rating ([4]; 40 ppm (*)): 0* %; Test E disease control rating ([5]; 40 ppm (*)): 0* %; Test H disease control rating ([6]; 40 ppm (*)): 0* %; Test L disease control rating ([7]; 40 ppm (*)): 0* %; Test G disease control rating ([10]; 40 ppm (*)): 0* %; Test B disease control rating ([11]; 40 ppm (*)): 0* % |
| CC(C)Cn1c(-c2cc(F)cc(F)c2F)c(Cl)nc(-n2cncn2)c1=O [compound 138] | – | – | – | – | – | – | – | – | – | – | – | Test D disease control rating ([1]; 100 ppm (#)): 12# %; Test F disease control rating ([2]; 100 ppm (#)): 0# %; Test J disease control rating ([3]; 100 ppm (#)): 46# %; Test K disease control rating ([4]; 100 ppm (#)): 0# %; Test E disease control rating ([5]; 100 ppm (#)): 83# %; Test H disease control rating ([6]; 100 ppm (#)): 0# %; Test L disease control rating ([7]; 100 ppm (#)): 0# %; Test C disease control rating ([8]; 100 ppm (#)): 24# %; Test A disease control rating ([9]; 100 ppm (#)): 0# %; Test G disease control rating ([10]; 100 ppm (#)): 55# %; Test B disease control rating ([11]; 100 ppm (#)): 0# % |
| CC(C)Cn1c(-c2ccccc2C(F)(F)F)c(Cl)nc(-n2cncn2)c1=O [compound 140] | 12 | 0 | 41 | 0 | 99 | 0 | 0 | 83 | 0 | 34 | 0 | – |
| CC(=O)N=c1c(C#N)nc(C)c(-c2ccccc2)n1CC(C)C [compound 431] | – | – | – | – | – | – | – | – | – | – | – | Test D disease control rating [1, 13]: 46%; Test F disease control rating [2, 13]: 0%; Test J disease control rating [3, 13]: 0%; Test I disease control rating [12]: 28%; Test K disease control rating [4, 13]: 32%; Test E disease control rating [5, 13]: 37%; Test H disease control rating [6, 13]: 0%; Test L disease control rating [7, 13]: 0%; Test A disease control rating [9, 13]: 88%; Test G disease control rating [10, 13]: 16%; Test B disease control rating [11, 13]: 0% |
